The results in this text go back to patent US20230295130A1, “COMPOUND USEFUL AS CDK7 KINASE INHIBITOR AND USE THEREOF” (TYK MEDICINES, INC., priority 2020, published 2023).

Holding throughout (assay): Enzyme activity test, mobility shift assay (Table 1)
What all share (type): biochemical

One experiment has as its target CDK9/Cyclin Tl (Homo sapiens (Human), UniProt P50750). As to conditions: 2 mM ATP; read-out: CDK9 kinase IC50. As to the method:
(§1) The compound powder was dissolved in 100% DMSO to prepare a 10 mM storage solution. The storage solution was further diluted to 0.5 mM as the initial concentration, and continuously diluted 3 times to obtain 10 compound solutions with different concentrations. The compound and enzyme were pre-incubated for 0 minutes and 60 minutes, respectively, using duplicate detection.
(§2) was used as a positive control, and Mobility shift assay method was used to detect CDK kinase (such as CDK7, CDK9, CDK12 and CDK2) activity of the compounds.

The next experiment concerns the target CDK2/Cyclin El (Homo sapiens (Human), UniProt P24941). As to conditions: 2 mM ATP; read-out: CDK2 kinase IC50. As to the method: as §1, §2
Experiment [1] deals with CDK12 (aa686-1082)/Cyclin K (Homo sapiens (Human), UniProt Q9NYV4). On the procedure: The compound powder was dissolved in 100% DMSO to prepare a 10 mM storage solution. The storage solution was further diluted to 0.5 mM as the initial concentration, and continuously diluted 3 times to obtain 10 compound solutions with different concentrations. The compound and enzyme were pre-incubated for 0 minutes and 60 minutes, respectively, using duplicate detection. Compound Staurosporine having a structural formula of
CDK12 (aa686-1082)/Cyclin K, sequence (Q9NYV4 686-1082): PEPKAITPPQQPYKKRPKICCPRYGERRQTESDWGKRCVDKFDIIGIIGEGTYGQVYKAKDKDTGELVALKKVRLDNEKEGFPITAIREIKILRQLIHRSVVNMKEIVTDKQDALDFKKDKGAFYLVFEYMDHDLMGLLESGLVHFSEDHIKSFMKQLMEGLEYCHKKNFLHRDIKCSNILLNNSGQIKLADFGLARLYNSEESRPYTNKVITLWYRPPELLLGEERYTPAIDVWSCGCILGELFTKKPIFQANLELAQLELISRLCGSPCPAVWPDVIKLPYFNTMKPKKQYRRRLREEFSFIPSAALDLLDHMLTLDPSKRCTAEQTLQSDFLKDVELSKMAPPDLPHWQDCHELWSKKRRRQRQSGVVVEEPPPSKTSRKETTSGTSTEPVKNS
CDK12 (aa686-1082)/Cyclin K, sequence (O75909 whole entry partner, the tested form may be a part): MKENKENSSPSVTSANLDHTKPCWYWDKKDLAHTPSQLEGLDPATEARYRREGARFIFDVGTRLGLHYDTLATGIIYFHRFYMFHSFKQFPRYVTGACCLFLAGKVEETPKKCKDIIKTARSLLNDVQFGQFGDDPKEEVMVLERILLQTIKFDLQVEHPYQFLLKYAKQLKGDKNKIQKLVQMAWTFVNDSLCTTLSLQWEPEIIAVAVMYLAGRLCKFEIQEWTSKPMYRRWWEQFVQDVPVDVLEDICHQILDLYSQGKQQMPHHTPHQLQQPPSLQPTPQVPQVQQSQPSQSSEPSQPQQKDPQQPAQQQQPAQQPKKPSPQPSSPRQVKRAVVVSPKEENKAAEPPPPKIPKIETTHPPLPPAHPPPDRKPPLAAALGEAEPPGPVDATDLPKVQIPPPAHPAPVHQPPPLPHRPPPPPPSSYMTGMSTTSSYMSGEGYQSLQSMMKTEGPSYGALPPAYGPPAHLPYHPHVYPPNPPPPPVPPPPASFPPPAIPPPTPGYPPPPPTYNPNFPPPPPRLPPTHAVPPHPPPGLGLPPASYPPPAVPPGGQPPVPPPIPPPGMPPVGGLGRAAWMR
as §2

Experiment [2] concerns the target CDK7/Cyclin H/MAT1 kinase (Homo sapiens (Human), UniProt P50613). As to conditions: 2 mM ATP; pre-incubated 0 and 60 minutes. On the procedure: IC50 values of the compounds for CDK7 kinase were detected in Wuxi Biortus Biosciences Co. Ltd.
as §1, §2

The mark [3] stands for this setting: 2 mM ATP, read-out: CDK12 kinase IC50.

Each structure is given as a SMILES string. Like-named read-outs stand apart in the source and are kept apart here.

CDK7/Cyclin H/MAT1 kinase, sequence (P50613 whole entry): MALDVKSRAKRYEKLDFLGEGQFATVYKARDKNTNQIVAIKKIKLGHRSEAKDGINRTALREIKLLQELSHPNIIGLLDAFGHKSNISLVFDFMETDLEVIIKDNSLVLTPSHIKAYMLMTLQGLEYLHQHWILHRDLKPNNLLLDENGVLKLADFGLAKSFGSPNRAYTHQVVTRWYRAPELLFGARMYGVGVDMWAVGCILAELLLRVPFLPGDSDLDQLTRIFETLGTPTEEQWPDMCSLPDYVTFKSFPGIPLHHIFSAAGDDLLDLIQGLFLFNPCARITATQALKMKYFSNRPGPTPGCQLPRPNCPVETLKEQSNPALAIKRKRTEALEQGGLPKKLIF
CDK7/Cyclin H/MAT1 kinase, sequence (P51946 whole entry partner): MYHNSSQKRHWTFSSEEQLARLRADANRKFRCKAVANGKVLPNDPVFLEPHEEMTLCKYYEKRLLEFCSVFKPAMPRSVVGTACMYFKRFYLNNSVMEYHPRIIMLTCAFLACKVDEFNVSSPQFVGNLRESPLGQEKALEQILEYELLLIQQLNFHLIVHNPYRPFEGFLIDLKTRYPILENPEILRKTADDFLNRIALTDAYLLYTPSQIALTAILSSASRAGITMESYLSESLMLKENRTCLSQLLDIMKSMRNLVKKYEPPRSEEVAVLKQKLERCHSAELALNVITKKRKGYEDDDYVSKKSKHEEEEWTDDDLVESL
CDK7/Cyclin H/MAT1 kinase, sequence (P51948 whole entry partner): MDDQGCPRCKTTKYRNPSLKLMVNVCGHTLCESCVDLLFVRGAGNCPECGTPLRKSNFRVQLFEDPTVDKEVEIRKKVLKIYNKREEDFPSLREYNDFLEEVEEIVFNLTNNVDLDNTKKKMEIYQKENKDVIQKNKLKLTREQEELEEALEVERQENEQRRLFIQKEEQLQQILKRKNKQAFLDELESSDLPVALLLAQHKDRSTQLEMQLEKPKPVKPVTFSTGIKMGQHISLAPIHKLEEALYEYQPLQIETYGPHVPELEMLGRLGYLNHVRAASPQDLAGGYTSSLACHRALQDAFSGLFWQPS
CDK9/Cyclin Tl, sequence (P50750 whole entry): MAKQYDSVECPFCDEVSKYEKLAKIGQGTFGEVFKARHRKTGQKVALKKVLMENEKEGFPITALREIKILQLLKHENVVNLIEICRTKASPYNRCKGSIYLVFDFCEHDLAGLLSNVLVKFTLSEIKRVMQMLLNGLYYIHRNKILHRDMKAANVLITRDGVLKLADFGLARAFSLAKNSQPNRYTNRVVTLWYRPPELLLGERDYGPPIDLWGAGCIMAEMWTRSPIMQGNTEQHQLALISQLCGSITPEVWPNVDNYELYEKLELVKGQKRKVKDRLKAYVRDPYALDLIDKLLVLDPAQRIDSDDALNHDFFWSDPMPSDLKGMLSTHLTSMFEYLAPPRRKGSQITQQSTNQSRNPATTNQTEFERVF
CDK9/Cyclin Tl, sequence (O60563 whole entry partner): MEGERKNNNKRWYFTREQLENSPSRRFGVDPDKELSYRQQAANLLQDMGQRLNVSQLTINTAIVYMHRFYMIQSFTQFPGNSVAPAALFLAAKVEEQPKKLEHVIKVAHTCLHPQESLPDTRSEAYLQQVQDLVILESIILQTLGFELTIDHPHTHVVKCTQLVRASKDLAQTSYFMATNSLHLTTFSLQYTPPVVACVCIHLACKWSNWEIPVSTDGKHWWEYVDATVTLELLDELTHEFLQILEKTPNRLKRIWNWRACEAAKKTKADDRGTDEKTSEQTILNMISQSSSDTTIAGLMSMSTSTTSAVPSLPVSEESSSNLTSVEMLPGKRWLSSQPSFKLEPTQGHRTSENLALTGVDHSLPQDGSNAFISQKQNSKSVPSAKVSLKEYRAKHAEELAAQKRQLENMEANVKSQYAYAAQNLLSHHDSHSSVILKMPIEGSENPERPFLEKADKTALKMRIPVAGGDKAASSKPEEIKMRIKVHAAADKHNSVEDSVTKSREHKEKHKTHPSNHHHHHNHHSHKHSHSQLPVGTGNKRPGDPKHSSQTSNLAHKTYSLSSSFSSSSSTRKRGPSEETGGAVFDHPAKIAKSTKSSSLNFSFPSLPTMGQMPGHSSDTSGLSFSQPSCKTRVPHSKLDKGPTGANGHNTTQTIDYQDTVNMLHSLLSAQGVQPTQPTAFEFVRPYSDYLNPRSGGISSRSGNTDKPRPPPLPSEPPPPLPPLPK

Turning to `COC(=O)Nc1ccc2c(-c3nc(O[C@H]4CCCNC4)ncc3C(F)(F)F)c[nH]c2c1Br` [Example T-02], the IC50 at CDK9/Cyclin Tl was above 500 nM; on CDK2/Cyclin El it was above 500 nM; in experiment [1] (setting [3]), above 500 nM; in experiment [2] it was 50 to 500 nM.
As for `O=C1CCCCN1c1ccc2c(-c3nc(N[C@H]4CCCNC4)ncc3C(F)(F)F)c[nH]c2c1Br` [Example T-03], the IC50 on CDK9/Cyclin Tl is above 500 nM; at CDK2/Cyclin El it was above 500 nM; in experiment [1] (setting [3]), above 500 nM; in experiment [2], below 50 nM.
In the case of `O=C1CCCN1c1ccc2c(-c3nc(N[C@H]4CCCNC4)ncc3C(F)(F)F)c[nH]c2c1Br` [Example T-04], the IC50 is above 500 nM at CDK9/Cyclin Tl, above 500 nM at CDK2/Cyclin El, above 500 nM in experiment [1] (setting [3]) and below 50 nM in experiment [2].
Turning to `CN1CCC[C@H](Nc2ncc(C(F)(F)F)c(-c3c[nH]c4cc(N5CCCC5=O)ccc34)n2)C1` [Example T-05], the IC50 at CDK9/Cyclin Tl is above 500 nM; on CDK2/Cyclin El it was above 500 nM; in experiment [1] (setting [3]) it was above 500 nM; in experiment [2], below 50 nM.
On to `O=C1OCCCN1c1ccc2c(-c3nc(N[C@H]4CCCNC4)ncc3C(F)(F)F)c[nH]c2c1Br` [Example T-06], for which the 50% inhibitory concentration (IC50) at CDK9/Cyclin Tl is above 500 nM; at CDK2/Cyclin El, above 500 nM; in experiment [1] (setting [3]), above 500 nM; in experiment [2], below 50 nM.
As for `CC1(C)COC(Nc2ccc3c(-c4nc(N[C@H]5CCCNC5)ncc4C(F)(F)F)c[nH]c3c2Br)=N1` [Example T-07], the IC50 at CDK9/Cyclin Tl is above 500 nM; on CDK2/Cyclin El, above 500 nM; in experiment [1] (setting [3]), above 500 nM; in experiment [2] it was below 50 nM.
In the case of `O=C(Nc1ccc2c(-c3nc(N[C@H]4CCCNC4)ncc3C(F)(F)F)c[nH]c2c1Br)C1CC1` [Example T-08], the IC50 at CDK9/Cyclin Tl was above 500 nM; on CDK2/Cyclin El, above 500 nM; in experiment [1] (setting [3]), above 500 nM; in experiment [2], below 50 nM.
Take `CC(=O)Nc1ccc2c(-c3nc(N[C@H]4CCCNC4)ncc3C(F)(F)F)c[nH]c2c1Br` [Example T-09]: the IC50 at CDK9/Cyclin Tl was above 500 nM; on CDK2/Cyclin El, above 500 nM; in experiment [1] (setting [3]), above 500 nM; in experiment [2] it was below 50 nM.
With `CC(=O)Nc1ccc2c(-c3nc(N[C@H]4CCCNC4)ncc3C(F)(F)F)c[nH]c2c1` [Example T-10], the IC50 was above 500 nM on CDK9/Cyclin Tl, above 500 nM at CDK2/Cyclin El, above 500 nM in experiment [1] (setting [3]) and below 50 nM in experiment [2].
With `O=C(Nc1ccc2c(-c3nc(N[C@H]4CCCNC4)ncc3C(F)(F)F)c[nH]c2c1)C1CC1` [Example T-11], the IC50 on CDK9/Cyclin Tl is above 500 nM; on CDK2/Cyclin El it was above 500 nM; in experiment [1] (setting [3]) it was above 500 nM; in experiment [2] it was below 50 nM.
Consider `O=C1OCCN1c1ccc2c(-c3nc(N[C@H]4CCCNC4)ncc3C(F)(F)F)c[nH]c2c1Br` [Example T-12], for which the IC50 on CDK9/Cyclin Tl was above 500 nM; at CDK2/Cyclin El, above 500 nM; in experiment [1] (setting [3]), above 500 nM; in experiment [2] it was below 50 nM.
On to `O=C1CCCN1c1ccc2c(-c3nc(N[C@H]4CCCNC4)ncc3C(F)(F)F)c[nH]c2c1` [Example T-13], for which the IC50 at CDK9/Cyclin Tl was above 500 nM; on CDK2/Cyclin El it was above 500 nM; in experiment [1] (setting [3]), above 500 nM; in experiment [2], below 50 nM.
For the molecule `COC(=O)Nc1ccc2c(-c3nc(N[C@H]4CCCNC4)ncc3C(F)(F)F)c[nH]c2c1P(C)(C)=O` [Example T-14], the IC50 at CDK9/Cyclin Tl is above 500 nM; on CDK2/Cyclin El, above 500 nM; in experiment [1] (setting [3]), above 500 nM; in experiment [2] it was below 50 nM.
Take `CC(=O)Nc1ccc2c(-c3nc(N[C@H]4CCCNC4)ncc3C(F)(F)F)c[nH]c2c1P(C)(C)=O` [Example T-15]: the IC50 was above 500 nM at CDK9/Cyclin Tl, above 500 nM on CDK2/Cyclin El, above 500 nM in experiment [1] (setting [3]) and below 50 nM in experiment [2].
Take `CN[C@@H]1C[C@H]2O[C@@](C)([C@@H]1OC)n1c3ccccc3c3c4c(c5c6ccccc6n2c5c31)C(=O)NC4` [Staurosporine, reference compound]: the IC50 in experiment [1] is above 500 nM.

Broadly, the IC50 is the point on the concentration scale where inhibition reaches its midpoint.
